{"source": "patent US20250222003A1", "about": "“PHARMACEUTICAL COMPOSITION FOR TREATING SOLID TUMORS” (Eisai R&D Management Co., Ltd., priority 2021, published 2025)", "test_system": "patients with a solid tumor", "settings": "human, in vivo", "method": "This study was carried out as an open-label phase I clinical trial for Compound A. The study was composed of a dose-escalation part to evaluate the safety and tolerability of Compound A, and an expansion part to evaluate the safety, tolerability and preliminary efficacy of Compound A. Each dose in the Examples is expressed as a dose of Compound A in free form.\nIn the dose-escalation part, the safety and tolerability of Compound A was evaluated at a plurality of doses using a 3+3 design. The starting dose of Compound A was set at 10 mg BID (twice daily).\nNCI CTCAE v5.0 was used to evaluate the severity.\nThis was performed using the analysis subject populations for all safety evaluations (excluding DLT evaluations).\nSummary statistics for the safety data (continuous variables: number of cases, mean value, standard deviation, median, minimum and maximum values; categorical variables: number of cases and proportion) were calculated based on the actually administered treatments. […] The following laboratory tests were performed: hematological tests (red blood cell count, hemoglobin, hematocrit value, platelet count, white blood cell count, white blood cell fractions (neutrophils, lymphocytes, monocytes, eosinophils, basophils) coagulation test: INR), blood biochemical tests (liver function tests (AST, ALT, ALP, GGT, total bilirubin, direct bilirubin), renal function test (BUN, creatinine), other tests (blood glucose level, albumin, cholesterol, LDH, total protein, uric acid, amylase, lipase, Na, K, Cl, Ca, phosphorus, Mg, virus test: HBs antigen a, HBs antibody a, HBc antibody a, HCV antibody a, HIV antibody a, HBV DNAb, B-CTXc, 25-hydroxyvitamin Dd), and urine test (pH, protein, sugar, ketone bodies, occult blood, specific gravity))."}
{"compound": "C=CCN1CC(=O)N2[C@@H](Cc3ccc(O)cc3F)C(=O)N(Cc3cccc(N4CC(N5CCN(CC)CC5)C4)n3)C[C@@H]2N1C(=O)NCc1ccccc1", "note": "[Compound A, (6S,9aS)—N-benzyl-8-({6-[3-(4-ethylpiperazin-1-yl)azetidin-1-yl]pyridin-2-yl}methyl)-6-(2-fluoro-4-hydroxybenzyl)-4,7-dioxo-2-(prop-2-en-1-yl)hexahydro-2H-pyrazino[2,1-c][1,2,4]triazine-1 (6H)-carboxamide]", "values": [{"measurement": "Subjects with Any Treatment-related TEAEs, Any Grade, (%)", "value": "(89.3) %"}, {"measurement": "Subjects with Any Treatment-related TEAEs, Grade ≥3, (%)", "value": "(10.7) %"}, {"measurement": "TEAE Alanine aminotransferase increased, Any Grade, (%)", "value": "(14.3) %"}, {"measurement": "TEAE Amylase increased, Any Grade, (%)", "value": "(3.6) %"}, {"measurement": "TEAE Anemia, Any Grade, (%)", "value": "(10.7) %"}, {"measurement": "TEAE Aspartate aminotransferase increased, Any Grade, (%)", "value": "(14.3) %"}, {"measurement": "TEAE C-telopeptide increased, Any Grade, (%)", "value": "(3.6) %"}, {"measurement": "TEAE Decreased appetite, Any Grade, (%)", "value": "(10.7) %"}, {"measurement": "TEAE Decreased appetite, Grade ≥3, (%)", "value": "(7.1) %"}, {"measurement": "TEAE Diarrhea, Any Grade, (%)", "value": "(7.1) %"}, {"measurement": "TEAE Electrocardiogram QT prolonged, Any Grade, (%)", "value": "(3.6) %"}, {"measurement": "TEAE Hyperphosphatemia, Any Grade, (%)", "value": "(3.6) %"}, {"measurement": "TEAE Lipase increased, Any Grade, (%)", "value": "(3.6) %"}, {"measurement": "TEAE Lipase increased, Grade ≥3, (%)", "value": "(3.6) %"}, {"measurement": "TEAE Liver disorder, Any Grade, (%)", "value": "(3.6) %"}, {"measurement": "TEAE Nausea, Any Grade, (%)", "value": "(78.6) %"}, {"measurement": "TEAE Osteoporosis, Any Grade, (%)", "value": "(3.6) %"}, {"measurement": "TEAE Rash, Any Grade, (%)", "value": "(3.6) %"}, {"measurement": "TEAE Sinus tachycardia, Any Grade, (%)", "value": "(3.6) %"}, {"measurement": "TEAE Stomatitis, Any Grade, (%)", "value": "(3.6) %"}, {"measurement": "TEAE Vomiting, Any Grade, (%)", "value": "(67.9) %"}, {"measurement": "TEAE White blood cell count decreased, Any Grade, (%)", "value": "(7.1) %"}, {"measurement": "recommended dose", "value": "less than 160 mg BID"}]}
